Values quoted from earlier work as cited in patent publication US8124611B2, “Inhibitors of the mutant form of kit” (Novartis AG, priority 2003, dated 2012).

Molecular target: KIT D816V mutation (Homo sapiens, UniProt P10721, D816V)
Conditions: D816V mutation commonly found in systemic mastocytosis

Chain of KIT D816V mutation (P10721 26-976 D816V): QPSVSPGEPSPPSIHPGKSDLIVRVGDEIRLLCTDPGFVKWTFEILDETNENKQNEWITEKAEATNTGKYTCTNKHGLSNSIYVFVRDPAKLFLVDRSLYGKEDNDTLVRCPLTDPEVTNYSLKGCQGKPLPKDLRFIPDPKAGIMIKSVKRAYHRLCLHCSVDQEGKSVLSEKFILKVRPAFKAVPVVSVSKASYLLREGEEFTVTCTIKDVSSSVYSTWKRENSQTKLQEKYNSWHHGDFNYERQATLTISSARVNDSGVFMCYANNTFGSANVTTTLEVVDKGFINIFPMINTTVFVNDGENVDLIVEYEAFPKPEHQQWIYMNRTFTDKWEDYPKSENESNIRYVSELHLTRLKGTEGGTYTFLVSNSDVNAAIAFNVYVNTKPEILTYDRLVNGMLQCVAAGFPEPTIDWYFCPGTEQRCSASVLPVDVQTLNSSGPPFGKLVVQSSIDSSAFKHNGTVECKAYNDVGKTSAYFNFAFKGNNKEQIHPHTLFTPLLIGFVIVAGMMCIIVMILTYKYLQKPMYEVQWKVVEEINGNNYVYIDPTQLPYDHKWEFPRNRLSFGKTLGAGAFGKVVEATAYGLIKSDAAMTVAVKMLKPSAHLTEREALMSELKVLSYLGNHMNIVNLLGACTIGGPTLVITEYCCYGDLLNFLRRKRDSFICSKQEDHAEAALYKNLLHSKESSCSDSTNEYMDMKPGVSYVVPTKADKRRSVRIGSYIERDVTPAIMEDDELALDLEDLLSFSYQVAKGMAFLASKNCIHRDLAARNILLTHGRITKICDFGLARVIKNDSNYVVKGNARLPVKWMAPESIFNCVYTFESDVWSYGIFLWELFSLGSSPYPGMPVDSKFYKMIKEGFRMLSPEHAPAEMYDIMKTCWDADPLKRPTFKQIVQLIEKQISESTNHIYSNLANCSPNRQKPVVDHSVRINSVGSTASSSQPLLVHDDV

activity against mutant forms of KIT: inactive or significantly less active
SMILES: Cc1ccc(NC(=O)c2ccc(CN3CCN(C)CC3)cc2)cc1Nc1nccc(-c2cccnc2)n1 [Imatinib]
